Assay results as given in PubChem BioAssay AID2305 (GlaxoSmithKline (GSK), 2010).

The compounds below were run on P. falciparum 3D7 growth, pLDH absorbance (assay: blood-stage malaria parasite growth potency – strain 3D7, dose response (AID 2305)).

Row | Structure (SMILES) | IC50 [µM]
1 | COc1cc(C2CCN(CCCCNC(=O)c3ccc(NC(=O)c4cc(C(F)(F)F)cc(C(F)(F)F)c4)cc3)CC2)ccc1OC(C)C | 0.15
2 | CCCC(CNCc1cccc(I)c1)CNc1cc(=O)c2ccccc2[nH]1 (stereo not given) | 0.47
3 | Cc1[nH]c2ccccc2c(=O)c1[N+](=O)[O-] | 1.11
4 | Cc1ccc(Nc2nc(C)cc(NC3CC3)n2)cc1 | 1.22
5 | COc1cccc2c(O)c(CNC3CCCCC3)ccc12 | 0.63
6 | Cc1cc2nc(-c3ccc(C(=O)NCCCc4ccccc4)cc3)[nH]c2cc1C | 1.18
7 | OCc1ccc(-c2cncc(Nc3cccc(Cl)c3)c2)cc1 | 0.07
8 | CC(C)COc1ccc(Cl)cc1Cc1ccc(-c2nc3ccc(Br)cc3[nH]2)o1 | 1.4
9 | Oc1ccc(CCNc2nc(NCCCOc3ccccc3-c3ccncc3)nc(N3CCNCC3)n2)cc1 | 1.11
10 | CC1(C)N=C(N)N=C(N)N1OCCCOc1cccc(C(=O)O)c1 | 0.04
11 | COc1ccc(CC(Cc2ccc(OC)cc2)NCC(O)c2cccc(Cl)c2)cc1 (stereo not given) | 0.16
12 | Cc1ccc2nc(-c3ccccc3)cc(NN=Cc3cccnc3)c2c1 | 0.69
13 | CCCN(CCC)C(=O)c1cc(C(=O)N[C@@H](Cc2ccccc2)[C@H](O)CNCc2cccc(OC)c2)cc(N2CCCCS2(=O)=O)c1 | 0.55
14 | COc1ccc(NC(=O)[C@H](Cc2ccccc2)Nc2cc(C)nc(NCCc3ccc(F)cc3)n2)cc1 | 1.12
15 | CCCC(CNC(=O)c1cc2c(Cl)cc(Cl)cc2[nH]1)CNc1cc(=O)c2ccccc2[nH]1 (stereo not given) | 0.9
16 | Cc1cccc2[nH]c(-c3cccc(-c4cccc(NC(=O)CC5NC(=O)c6ccccc65)c4)c3)nc12 (stereo not given) | 1.03
17 | CCNc1cc(C(=O)N[C@@H](Cc2cc(F)cc(F)c2)[C@H](O)CNCc2cccc(C(F)(F)F)c2)cc(N2CCCCS2(=O)=O)c1 | 0.61
18 | O=S(=O)(c1ccccc1)n1ccc2cc(Nc3ncnc4cc(C#C[C@H]5CCCN5)sc34)ccc21 | 1.07
19 | O=C(NCCN1Cc2ccccc2C1=O)c1ccc(Oc2ccc(C(=O)NCCN3Cc4ccccc4C3=O)cc2)cc1 | 0.36
20 | COc1cccc2c(NN=Cc3ccc(Cl)cc3)ccnc12 | 0.81
21 | COc1ccc2nc(-c3ccccc3)cc(NN=Cc3ccc([N+](=O)[O-])cc3)c2c1 | 0.15
22 | C=CCC1OC(=O)c2cc(OC)cc(OC)c21 (stereo not given) | 0.34
23 | CC(C)(C)NCc1cc(Nc2ccnc3cc(Cl)ccc23)ccc1F | 0.03
24 | CCCCCCNCCOc1ccc(-c2nc(-c3ccccc3)c(-c3ccccc3)[nH]2)cc1 | 0.67

Row | Structure (SMILES) | IC50 [µM]
25 | Cc1cc(CNCCCCCNCc2ccc(Cl)cc2)ccc1O | 0.71
26 | O=[N+]([O-])c1ccc(NC(=NC2CCCc3ccccc32)Nc2ccccc2Br)c(O)c1 (stereo not given) | 0.92
27 | Cc1cc(-c2cnc(N)c(-c3ccc(N4CCN(C)CC4)nc3)c2)cc(C)c1O | 1.4
28 | Cc1cc(NC(=O)c2cc(S(=O)(=O)N3CCCCC3)ccc2C)no1 | 0.72
29 | O=C(NCc1ccc(F)cc1)Nc1ccc(-c2cccc(-c3nc4ccc(C(F)(F)F)cc4[nH]3)c2)cc1 | 0.95
30 | Cc1cc(NN=Cc2ccc(Cl)cc2)c2cc(C(F)(F)F)ccc2n1 | 0.92
31 | CC(CN1CCN(C)CC1)C(=O)Nc1ccc(-c2csc(-c3nc4ccccc4[nH]3)c2)cc1 (stereo not given) | 0.84
32 | COc1ccc(-c2cnc3[nH]cc(-c4ccc(C(=O)O)cc4)c3c2)cn1 | 0.54
33 | CCN(CCCN1CCCCC1)c1cc(C)nc(Nc2ccc(C(F)(F)F)cc2)n1 | 0.37
34 | CCn1ccc2c(N3CCCS3(=O)=O)cc(C(=O)N[C@@H](Cc3ccccc3)[C@H](O)CNC(C)(C)c3cccc(OC)c3)cc21 | 0.04
35 | CCCCCC(=O)N1CCOC(CCN2CCc3c(c4ccccc4n3C)C2)(c2ccc(Cl)c(Cl)c2)C1 (stereo not given) | 0.98
36 | CC1CCCC(NC(=O)CCOc2ccccc2)C1 (stereo not given) | 0.88
37 | Cc1cc(C(=O)CN2C(=O)NC3(CCCc4ccccc43)C2=O)c(C)n1Cc1ccc(F)cc1 (stereo not given) | 0.97
38 | NC1CCN(Cc2ccc(-c3cccc(-c4nc5ccc(F)cc5[nH]4)c3)cc2)C1 (stereo not given) | 0.76
39 | CCCOc1ccc(-c2nonc2NC(=O)c2cccc(OC)c2)cc1OCCC | 1.15
40 | CN1CCN(CC(=O)Nc2cccc(-c3ccc(-c4nc5ccc(F)cc5[nH]4)s3)c2)CC1 | 0.68
41 | COc1ccc(CNC2CCN(C)CC2)cc1-c1ccc(S(=O)(=O)NCCc2ccccn2)cc1 | 1.09
42 | O=C(Nc1cccc(CN2CCCN(Cc3cccc(Cl)c3)CC2)c1)c1ccc(-c2ccccc2)cc1 | 1.23
43 | Cc1cccc2[nH]c(-c3cccc(-c4ccc(NC(=O)C5CC(=O)Nc6ccccc65)cc4)c3)nc12 (stereo not given) | 0.69
44 | COc1ccc(-c2ccc(NC(=O)c3cccc(Cl)c3)cc2)cc1CN1CCCC1 | 0.71
45 | CCN(CC)CCNC(=O)c1ccc(NC(=O)c2cn(-c3ccccc3)nc2-c2cccs2)cc1 | 0.26
46 | COc1ccc(CCNC(C)Cc2ccc(C(=O)Nc3ccc(CC(C)NCCc4cccc(Cl)c4)cc3)cc2)cc1 (stereo not given) | 0.25
47 | N#Cc1ccc(-c2ccc(C(=O)NCCCCN3CCC(c4ccc5c(c4OCC(N)=O)CCCC5)CC3)nc2)cc1 | 0.73
48 | CCOc1ccc(-c2n[nH]c(C(F)(F)F)c2-c2ccccc2OC)c(O)c1 | 1.14

Row | Structure (SMILES) | IC50 [µM]
49 | COc1ccc2ncc(F)c([C@H](O)CN3CCC(NCc4cc5c(cn4)OCCO5)CC3)c2c1 | 0.29
50 | Cc1cc(Nc2cccc(C#N)c2)nc(Nc2ccccc2C)n1 | 0.86
51 | Cc1cc(C(=O)Nc2ccc3c(c2)CCN3C2CCN(Cc3cc(F)cc(F)c3F)C2)no1 (stereo not given) | 0.28
52 | O=C(c1cc(C(=O)Nc2ccccc2)c(=O)n(-c2ccccc2)c1)c1cc(Cl)ccc1O | 0.39
53 | Nc1nccc2ccc(-c3cccc(O)c3)cc12 | 0.64
54 | O=C(Nc1ccc(C(F)(F)F)cc1)c1cccc(S(=O)(=O)NC2CCN(Cc3ccccc3)C2)c1 (stereo not given) | 1.05
55 | Cc1cc(N)ncc1-c1ccc(NC(=O)Nc2cc(C(F)(F)F)ccc2F)cc1 | 0.7
56 | N=C(N)c1ccc(Nc2nc(Nc3ccc(-c4ccccc4)cc3)ncc2[N+](=O)[O-])cc1 | 0.8
57 | COc1ccc2nc(N3CCNCC3)nc(NCCCc3ccccc3)c2c1 | 1
58 | NC(N)=NC(=O)Nc1ccc(Cl)c(Cl)c1 | 1.04
59 | Brc1ccc(Nc2nc(NCC3CCCO3)c3ccccc3n2)cc1 (stereo not given) | 0.58
60 | CCCNC(=O)C1Cc2c([nH]c3cc(Br)ccc23)C2(CCN(CCc3ccccc3)CC2)N1 (stereo not given) | 0.97
61 | CCCCN1C(=O)[C@H]2CC(=O)CC(C3CCCCC3)[C@H]2C1=O (stereo not given in full) | 0.89
62 | O=C(/C=C/c1ccc(Cl)c(Cl)c1)NCCCCCN1CCC(NC(=O)Nc2ccc(F)c(Cl)c2)CC1 | 0.62
63 | COC1CCC(C(=O)Nc2ccc(-c3cccc(-c4nc5c(C)cccc5[nH]4)c3)cc2)CC1 (stereo not given) | 0.58
64 | CCCC(CNCc1ccccc1)CNc1cc(=O)c2ccccc2[nH]1 (stereo not given) | 1.02
65 | COc1ccc(OC)c2c1CCN(C)C2Cc1cccc2ccccc12 (stereo not given) | 1.05
66 | C=C[C@H]1CN(CCCCCCC)CC[C@H]1C[C@@H](Cc1ccnc2ccc(OC)cc12)OC(=O)[C@](OC)(c1ccccc1)C(F)(F)F | 0.88
67 | COCCNCc1ccc(-c2ccc(CN(C(=O)NC3CCCCC3)C3CCN(Cc4ccccc4)CC3)cc2)cc1 | 0.96
68 | CCN(CCCN1CCCCC1)c1cc(C)nc(Nc2ccc(Oc3ccccc3)cc2)n1 | 0.3
69 | Cc1cc(C(=O)Nc2ccc(C)c(-c3nc(N(C(=O)c4ccc(F)c(C)c4)C4CCNCC4)nc4c3ccc(=O)n4-c3c(F)cccc3F)c2)ccc1F | 0.32
70 | O=C(N[C@@H](CC1CCCCC1)C(=O)NCCN1CCCC1)c1ccc(O)c(-c2cccc(C(F)(F)F)c2)c1 | 0.76
